In test [1] the target is T1, Prostaglandin G/H synthase 2 (Homo sapiens, UniProt P35354).
T1 sequence (P35354 whole entry): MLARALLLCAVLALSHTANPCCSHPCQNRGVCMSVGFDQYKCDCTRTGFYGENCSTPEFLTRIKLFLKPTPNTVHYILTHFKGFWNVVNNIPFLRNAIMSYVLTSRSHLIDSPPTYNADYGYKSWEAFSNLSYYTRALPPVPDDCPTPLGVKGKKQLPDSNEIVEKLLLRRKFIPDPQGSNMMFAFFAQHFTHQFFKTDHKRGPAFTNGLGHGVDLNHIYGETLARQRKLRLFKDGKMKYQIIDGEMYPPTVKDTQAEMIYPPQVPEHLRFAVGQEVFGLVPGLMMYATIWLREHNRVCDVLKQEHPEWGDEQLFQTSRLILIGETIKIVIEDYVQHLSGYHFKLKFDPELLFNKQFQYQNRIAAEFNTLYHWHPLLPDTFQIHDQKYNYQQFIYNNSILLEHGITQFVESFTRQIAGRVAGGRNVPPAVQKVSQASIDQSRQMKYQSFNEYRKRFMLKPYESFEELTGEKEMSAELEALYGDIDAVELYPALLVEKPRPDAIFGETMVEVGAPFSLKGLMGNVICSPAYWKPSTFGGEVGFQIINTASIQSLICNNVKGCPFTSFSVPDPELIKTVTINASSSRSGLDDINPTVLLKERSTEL
Description: In vitro inhibitory concentration against prostaglandin G/H synthase 2 in microsomal enzyme assay.

Test [2] has as its target T2, Prostaglandin G/H synthase 2 (Homo sapiens) (UniProt P35354).
T2 sequence (whole entry): T1 sequence (P35354 whole entry)
Briefly: In vitro percent inhibition of prostaglandin G/H synthase 2 at 100 uM in microsomal enzyme assay.

A value given as a limit tells only on which side of the number the result lay.

As to `CS(=O)(=O)c1ccc(C2=C(c3ccccc3)S(=O)OC2)cc1` (configuration not stated), the IC50 (as a rule, the concentration that gives 50% inhibition) in test [1] is greater than 100 µM. The inhibition (commonly the share of the control response that was lost under treatment) in test [2] came to 13%.

Source of the values: ChEMBL document CHEMBL1143529, “A general carbometalation, three component coupling strategy for the synthesis of alpha,beta-unsaturated gamma-sultines including thio-rofecoxib, a selective COX-2 inhibitor” (Bioorg Med Chem Lett, 2005).
